Results published in PubChem BioAssay (NCI).
Converted amounts (≈) assume the structure as drawn. “And” between values parts separate entries of the source, which are not always exact repeats. Identical values can stand only once.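 Growth conditions: 96-well plates. Treatment: test compound, 48 hours, 5 concentrations. Analysis: linear interpolation between bracketing concentrations; unreached endpoints set to highest concentration. GI50 is the concentration that inhibits growth by half. TGI denotes the concentration required for complete inhibition of growth.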 Where a SMILES comes first, the peptide text is derived from it. [ ]: non-standard residue; d: D form. The star is where a group is joined. hSer = N[CH](CCO)C(=O)O; Boc = CC(C)(C)OC(=O)*; Bn = c1ccc(C*)cc1

Key:
Assay in all cases: NCI tumour cell line growth inhibition, 48 h
UACC-257 melanoma = tested on: UACC-257 melanoma
COLO 205 colon = tested on: COLO 205 colon
SF-268 CNS = tested on: SF-268 CNS
T-47D breast = tested on: T-47D breast
BT-549 breast = tested on: BT-549 breast
HT29 colon = tested on: HT29 colon
IGROV1 ovarian = tested on: IGROV1 ovarian
786-0 renal = tested on: 786-0 renal
A549 NSCLC = tested on: A549 NSCLC
SK-MEL-28 melanoma = tested on: SK-MEL-28 melanoma
ACHN renal = tested on: ACHN renal
HS 578T breast = tested on: HS 578T breast
UACC-62 melanoma = tested on: UACC-62 melanoma
NCI-H226 lung = tested on: NCI-H226 lung
NCI-H522 lung = tested on: NCI-H522 lung
TK-10 renal = tested on: TK-10 renal
UO-31 renal = tested on: UO-31 renal
LOX IMVI melanoma = tested on: LOX IMVI melanoma
OVCAR-8 ovarian = tested on: OVCAR-8 ovarian
DU-145 prostate = tested on: DU-145 prostate
KM12 colon = tested on: KM12 colon
CAKI-1 renal = tested on: CAKI-1 renal
CCRF-CEM leukemia = tested on: CCRF-CEM leukemia
HCT-116 colon = tested on: HCT-116 colon
MCF7 breast = tested on: MCF7 breast
PC-3 prostate = tested on: PC-3 prostate
SF-295 CNS = tested on: SF-295 CNS
EKVX NSCLC = tested on: EKVX NSCLC
RPMI-8226 leukemia = tested on: RPMI-8226 leukemia
SN12C renal = tested on: SN12C renal
SK-MEL-2 melanoma = tested on: SK-MEL-2 melanoma
MDA-MB-231 breast = tested on: MDA-MB-231 breast
NCI-H460 lung = tested on: NCI-H460 lung
M14 melanoma = tested on: M14 melanoma
OVCAR-5 ovarian = tested on: OVCAR-5 ovarian
SW-620 colon = tested on: SW-620 colon
HOP-62 NSCLC = tested on: HOP-62 NSCLC
OVCAR-4 ovarian = tested on: OVCAR-4 ovarian
U251 CNS = tested on: U251 CNS
NCI/ADR-RES ovarian = tested on: NCI/ADR-RES ovarian
HCT-15 colon = tested on: HCT-15 colon
SNB-19 CNS = tested on: SNB-19 CNS
SNB-75 CNS = tested on: SNB-75 CNS
K-562 leukemia = tested on: K-562 leukemia
MDA-MB-435 = tested on: MDA-MB-435
NCI-H23 lung = tested on: NCI-H23 lung
SK-OV-3 ovarian = tested on: SK-OV-3 ovarian
SK-MEL-5 melanoma = tested on: SK-MEL-5 melanoma
HL-60(TB) leukemia = tested on: HL-60(TB) leukemia
HOP-92 NSCLC = tested on: HOP-92 NSCLC
MOLT-4 leukemia = tested on: MOLT-4 leukemia
HCC-2998 colon = tested on: HCC-2998 colon
RXF 393 renal = tested on: RXF 393 renal
OVCAR-3 ovarian = tested on: OVCAR-3 ovarian
MALME-3M melanoma = tested on: MALME-3M melanoma
SF-539 CNS = tested on: SF-539 CNS
A498 renal = tested on: A498 renal

O=C1C=Cc2c1ccc1ccccc21
GI50 (UACC-257 melanoma): 50.2 µM | TGI (UACC-257 melanoma): > 100 µM | GI50 (COLO 205 colon): 30.9 µM | TGI (COLO 205 colon): > 100 µM | GI50 (SF-268 CNS): 28.3 µM | TGI (SF-268 CNS): > 100 µM | GI50 (T-47D breast): 37.9 µM | TGI (T-47D breast): > 100 µM | GI50 (BT-549 breast): 31.4 µM | TGI (BT-549 breast): 89.9 µM | GI50 (HT29 colon): 58.8 µM | TGI (HT29 colon): > 100 µM | GI50 (IGROV1 ovarian): 25.5 µM | TGI (IGROV1 ovarian): > 100 µM | GI50 (786-0 renal): 21.3 µM | TGI (786-0 renal): 65.2 µM | GI50 (A549 NSCLC): 18.3 µM | TGI (A549 NSCLC): 65.8 µM | GI50 (SK-MEL-28 melanoma): 80.4 µM | TGI (SK-MEL-28 melanoma): > 100 µM | GI50 (ACHN renal): 17.1 µM | TGI (ACHN renal): 58.7 µM | GI50 (HS 578T breast): 18.4 µM | TGI (HS 578T breast): 54.6 µM | GI50 (UACC-62 melanoma): 9.66 µM | TGI (UACC-62 melanoma): 70.9 µM | GI50 (NCI-H226 lung): 16.6 µM | TGI (NCI-H226 lung): > 100 µM | GI50 (NCI-H522 lung): 27.6 µM | TGI (NCI-H522 lung): > 100 µM | GI50 (TK-10 renal): 15.9 µM | TGI (TK-10 renal): 54.9 µM | GI50 (UO-31 renal): 26.7 µM | TGI (UO-31 renal): > 100 µM | GI50 (LOX IMVI melanoma): 22 µM | TGI (LOX IMVI melanoma): 61.8 µM | GI50 (OVCAR-8 ovarian): 25.3 µM | TGI (OVCAR-8 ovarian): 73.6 µM | GI50 (DU-145 prostate): 48.8 µM | TGI (DU-145 prostate): > 100 µM | GI50 (KM12 colon): 24.5 µM | TGI (KM12 colon): 77.5 µM | GI50 (CAKI-1 renal): 11.1 µM | TGI (CAKI-1 renal): 33 µM | GI50 (CCRF-CEM leukemia): 14.8 µM | TGI (CCRF-CEM leukemia): 43.9 µM | GI50 (HCT-116 colon): 27 µM | TGI (HCT-116 colon): > 100 µM | GI50 (MCF7 breast): 18.6 µM | TGI (MCF7 breast): > 100 µM | GI50 (PC-3 prostate): 13 µM | TGI (PC-3 prostate): 85.2 µM | GI50 (SF-295 CNS): 20.8 µM | TGI (SF-295 CNS): 63.6 µM | GI50 (EKVX NSCLC): 12.6 µM | TGI (EKVX NSCLC): 61.3 µM | GI50 (RPMI-8226 leukemia): 4.2 µM | TGI (RPMI-8226 leukemia): 21.9 µM | GI50 (SN12C renal): 6.55 µM | TGI (SN12C renal): 35.7 µM | GI50 (SK-MEL-2 melanoma): 72.9 µM | TGI (SK-MEL-2 melanoma): > 100 µM | GI50 (MDA-MB-231 breast): 15 µM | TGI (MDA-MB-231 breast): 53.6 µM | GI50 (NCI-H460 lung): 35.7 µM | TGI (NCI-H460 lung): > 100 µM | GI50 (M14 melanoma): 18.9 µM | TGI (M14 melanoma): 60.3 µM | GI50 (OVCAR-5 ovarian): 16.1 µM | TGI (OVCAR-5 ovarian): 67.4 µM | GI50 (SW-620 colon): 44.3 µM | TGI (SW-620 colon): > 100 µM | GI50 (HOP-62 NSCLC): 14.3 µM | TGI (HOP-62 NSCLC): 50 µM | GI50 (OVCAR-4 ovarian): 75.2 µM | TGI (OVCAR-4 ovarian): > 100 µM | GI50 (U251 CNS): 24.5 µM | TGI (U251 CNS): > 100 µM | GI50 (NCI/ADR-RES ovarian): 31.9 µM | TGI (NCI/ADR-RES ovarian): > 100 µM | GI50 (HCT-15 colon): 24.1 µM | TGI (HCT-15 colon): > 100 µM | GI50 (SNB-19 CNS): 33 µM | TGI (SNB-19 CNS): > 100 µM | GI50 (SNB-75 CNS): 35.4 µM | TGI (SNB-75 CNS): > 100 µM | GI50 (K-562 leukemia): 28.7 µM | TGI (K-562 leukemia): > 100 µM | GI50 (MDA-MB-435): 14.9 µM | TGI (MDA-MB-435): 42.9 µM | GI50 (NCI-H23 lung): 27.4 µM | TGI (NCI-H23 lung): 85.2 µM | GI50 (SK-OV-3 ovarian): 30.2 µM | TGI (SK-OV-3 ovarian): > 100 µM | GI50 (SK-MEL-5 melanoma): 21.1 µM | TGI (SK-MEL-5 melanoma): 71 µM

Oc1c(Cl)c(Cl)c(Cl)c(Cl)c1Cl (tested in a mixture with another compound)
TGI (NCI-H226 lung): 41.7 µM | TGI (HL-60(TB) leukemia): 39 µM and 10 µM | TGI (CCRF-CEM leukemia): 62.3 µM

CCCCCCCCCCCCCCCCNCCC[C@@H](C)[C@H]1CC[C@H]2[C@@H]3[C@H](OCCCN)C[C@@H]4C[C@H](OCCCN)CC[C@]4(C)[C@H]3C[C@H](OCCCN)[C@]12C
GI50 (COLO 205 colon): 2.52 µM | TGI (COLO 205 colon): 5.13 µM | GI50 (SF-268 CNS): 2.17 µM | TGI (SF-268 CNS): 4.95 µM | GI50 (NCI-H522 lung): 2.25 µM | TGI (NCI-H522 lung): 5.36 µM | GI50 (UO-31 renal): 2.53 µM | TGI (UO-31 renal): 5.21 µM | GI50 (KM12 colon): 2.18 µM | TGI (KM12 colon): 5.03 µM | GI50 (CAKI-1 renal): 1.9 µM | TGI (CAKI-1 renal): 4.58 µM | GI50 (SK-MEL-2 melanoma): 2.48 µM | TGI (SK-MEL-2 melanoma): 5.35 µM | GI50 (M14 melanoma): 2.5 µM | TGI (M14 melanoma): 5.65 µM | GI50 (SW-620 colon): 2.18 µM | TGI (SW-620 colon): 4.94 µM | GI50 (MDA-MB-435): 2.28 µM | TGI (MDA-MB-435): 6.57 µM | GI50 (NCI-H23 lung): 2.39 µM | TGI (NCI-H23 lung): 5.4 µM

CC(C)CC(NC(=O)OC(C)(C)C)C(=O)NC(CCOCc1ccccc1)C(N)=O (stereo not drawn) (Boc-Leu-[hSer](Bn)-NH2; configuration not given here)
GI50 (HOP-92 NSCLC): 21.4 µg/mL (≈ 50.9 µM) | TGI (HOP-92 NSCLC): 57.4 µg/mL | GI50 (SK-OV-3 ovarian): 46.1 µg/mL

NC(=O)CC(N)C(=O)NC(Cc1ccccc1)C(=O)NC(Cc1ccccc1)NC(=O)C(Cc1c[nH]c2ccccc12)C(=O)O (centres undefined)
TGI (UACC-257 melanoma): > 100 µM | TGI (COLO 205 colon): > 100 µM | TGI (SF-268 CNS): > 100 µM | TGI (T-47D breast): > 100 µM | TGI (HT29 colon): > 100 µM | TGI (IGROV1 ovarian): > 100 µM | TGI (786-0 renal): > 100 µM | TGI (A549 NSCLC): > 100 µM | TGI (SK-MEL-28 melanoma): > 100 µM | TGI (ACHN renal): > 100 µM | TGI (HS 578T breast): > 100 µM | TGI (UACC-62 melanoma): > 100 µM | TGI (NCI-H226 lung): > 100 µM | TGI (NCI-H522 lung): > 100 µM | TGI (TK-10 renal): > 100 µM | TGI (UO-31 renal): > 100 µM | TGI (LOX IMVI melanoma): > 100 µM | TGI (OVCAR-8 ovarian): > 100 µM | TGI (DU-145 prostate): > 100 µM | TGI (KM12 colon): > 100 µM | TGI (CAKI-1 renal): > 100 µM | TGI (MOLT-4 leukemia): > 100 µM | TGI (HCC-2998 colon): > 100 µM | TGI (CCRF-CEM leukemia): > 100 µM | TGI (HCT-116 colon): > 100 µM | TGI (MCF7 breast): > 100 µM | TGI (HOP-92 NSCLC): > 100 µM | TGI (PC-3 prostate): > 100 µM | TGI (SF-295 CNS): > 100 µM | TGI (RXF 393 renal): > 100 µM | TGI (EKVX NSCLC): > 100 µM | TGI (RPMI-8226 leukemia): > 100 µM | TGI (SN12C renal): > 100 µM | TGI (SK-MEL-2 melanoma): > 100 µM | TGI (MDA-MB-231 breast): > 100 µM | TGI (NCI-H460 lung): > 100 µM | TGI (M14 melanoma): > 100 µM | TGI (OVCAR-3 ovarian): > 100 µM | TGI (OVCAR-5 ovarian): > 100 µM | TGI (MALME-3M melanoma): > 100 µM | TGI (SW-620 colon): > 100 µM | TGI (SF-539 CNS): > 100 µM | TGI (HOP-62 NSCLC): > 100 µM | TGI (OVCAR-4 ovarian): > 100 µM | TGI (U251 CNS): > 100 µM | TGI (NCI/ADR-RES ovarian): > 100 µM | TGI (HCT-15 colon): > 100 µM | TGI (SNB-19 CNS): > 100 µM | TGI (SNB-75 CNS): > 100 µM | TGI (K-562 leukemia): > 100 µM | TGI (MDA-MB-435): > 100 µM | TGI (A498 renal): > 100 µM | TGI (NCI-H23 lung): > 100 µM | TGI (SK-OV-3 ovarian): > 100 µM | TGI (SK-MEL-5 melanoma): > 100 µM
